15 compounds from US20240425491A1, “HETEROARYL COMPOUNDS USEFUL IN THE TREATMENT OF COGNITIVE DISORDERS” (University College Cardiff Consultants Limited, priority 2021, published 2024) can be followed below.

Where a name gives a salt, the structure may show the parent alone.

The target of experiment [1] is T1, human recombinant GABAAR containing α5β3γ2 subunits (benzodiazepine site) (Homo sapiens, UniProt P18507+P31644).
T1 construct: expressed in transfected cells; host or cells: mouse L(tk−) cells, dexamethasone-inducible vector pMSGneo
In words: In vitro radioligand binding assay (α5-GABAAR Ki). The note with it: inhibition of [3H]Ro15-1788 binding, membranes of L(tk−) cells expressing human α5β3γ2; read-out: α5-GABAAR Ki. An outline of the steps:
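Displacement of 4 nM [^3H]flumazenil from the benzodiazepine site, read by filtration and scintillation, gave IC50, converted to Ki (Cheng-Prusoff, saturation-derived Kd). Receptor: human α5β3γ2 membranes from L(tk^−) cells, 50 μg protein/well; 1 h, 4° C; TP003 1 μM defined nonspecific binding.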

The target of experiment [2] is T2, human α5β3γ2 GABAARs in mouse L(tk−) cells (Homo sapiens, UniProt P18507+P31644).
T2 construct: expressed in transfected cells; host or cells: mouse L(tk−) cells, dexamethasone-inducible vector pMSGneo
The experiment in a line: In vitro electrophysiological recording assay (α5-GABAAR relative efficacy), QPatch. It is filed as cell-based. The conditions noted are these: GABA EC10-20. The method, boiled down:
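Whole-cell QPatch recordings at 20-22° C, −65 mV holding, in dexamethasone-induced (1 μM, 24 h) L(tk−) cells. Compound pre-applied ≥1 min, then co-applied with GABA EC10-20; percentage change in leak-corrected peak current, taken at ≥100× Ki, normalised to DMCM efficacy; 0.1% DMSO final.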
(Patch clamp records ionic current or voltage across a cell membrane.)

Experiment [3] deals with T3, human α5β3γ2L GABAA receptors in HEK293 cells (Homo sapiens, UniProt P18507+P31644).
T3 construct: expressed in transfected cells
In words: In vitro electrophysiological recording assay (α5-GABAAR relative efficacy), SyncroPatch. Format: cell-based. The conditions noted are these: Conc 0.1 μM; GABA EC10-20. From the text:
Mouse L(tk^−) cells stably expressing human α1β3γ2, α2β3γ2, α3β3γ2, α5β3γ2 GABAARs generated by transfection of the individual subunits in the dexamethasone-inducible expression vector pMSGneo in mouse L(tk^−) cells (Hadingham et al., 1993, Mol. Pharmacol. 43:970-975 and 1993, Mol. Pharmacol. 44:1211-1218) were used for binding and functional assays. For certain compounds, HEK293 cells stable expressing the human α1β3γ2L, α2β3γ2L, α3β3γ2L and α5β3γ2L GABAA receptors were used to evaluate their functional effects in a SyncroPatch electrophysiology assay.
The efficacy of modulators was evaluated using either the automated patch-clamp platform QPatch16 (Sophion, Copenhagen, Denmark) or the SyncroPatch 384i (Nanion Technologies, Germany). Cells were harvested from flasks by enzymatic dissociation and re-suspended in serum-free medium.
For the Syncropatch recordings, a stacked addition protocol was used, in which GABA was rapidly applied and then washed off from the cell. All experiments were carried out at room temperature (20-22° C.) using a standard whole cell procedure. The currents recorded were acquired at 2 kHz and filtered using a Bessel filter. Whole-cell currents were measured at a holding potential of −80 mV.
For Syncropatch recordings, the extracellular recording solution contained: 140 mM NaCl, 4 mM KCl, 2 mM CaCl2), 1 mM MgCl2, 10 mM HEPES, 5 mM glucose (pH 7.4 and osmolarity of c. 300-310 mOsm/L). The intracellular recording solution contained: 90 mM KCl, 50 mM KF, 1.5 mM MgCl2, 11.1 mM EGTA and 10 mM HEPES (pH 7.2 and osmolarity of c. 300 mOsm/L). 2 mM of NaATP was added to the intracellular solution on the day of testing.
The effects of modulators were evaluated in the presence of a submaximal GABA concentration, giving typically 10-20% activation (GABA EC10-20) of the response elicited by a saturating GABA concentration. For QPatch recordings, to check and ensure baseline current stability before compound addition, five consecutive applications of GABA EC10-20 alone (each application with a 2 s duration, separated by minimum 1 min wash off periods) were performed before compound addition. The test compound was applied using the pipetting system of the QPatch system 1 min at least prior to co-application with GABA EC10-20. For SyncroPatch recordings, GABA EC20 alone was applied three times (1 s long applications, with wash steps in-between) before compound addition. This was followed by a 1-2 min pre-incubation with the test compound and then re-application of GABA EC10-20 in the presence of the compound. Finally, following a further wash step, a saturating concentration of GABA was applied, allowing the accurate evaluation for each cell of the percentage baseline activation elicited by the submaximal GABA applied.
The compounds were first dissolved in DMSO as a 10 mM stock and then further diluted to the testing concentrations so that the final DMSO concentration in the extracellular recording solution was kept constant at 0.1% for the QPatch recordings, or 0.2% for the SyncroPatch recordings.
The % efficacy of modulators was determined from the GABA elicited currents recorded in the presence and absence of the test compound, using the formula:
[((compound peak current−leak)−(GABA peak current−leak))/(GABA peak current−leak)]*100,
where ‘leak’ is the leak baseline current at −65 mV, ‘compound peak current’ is the current elicited by co-application of compound and GABA, and ‘GABA peak current’ is the current elicited by GABA alone during the 5th GABA application. The results were presented as ‘relative efficacy’ for each compound generally at a concentration equal or higher than 100 times their determined Ki. The relative efficacy of a compound was calculated by normalising its efficacy to the efficacy of methyl-6,7-dimethoxy-4-ethyl-beta-carboline-3-carboxylate (DMCM) that was separately determined produced an attenuation of GABA-induced currents of −57±4%, n=5.

T3 sequence (P31644 32-462): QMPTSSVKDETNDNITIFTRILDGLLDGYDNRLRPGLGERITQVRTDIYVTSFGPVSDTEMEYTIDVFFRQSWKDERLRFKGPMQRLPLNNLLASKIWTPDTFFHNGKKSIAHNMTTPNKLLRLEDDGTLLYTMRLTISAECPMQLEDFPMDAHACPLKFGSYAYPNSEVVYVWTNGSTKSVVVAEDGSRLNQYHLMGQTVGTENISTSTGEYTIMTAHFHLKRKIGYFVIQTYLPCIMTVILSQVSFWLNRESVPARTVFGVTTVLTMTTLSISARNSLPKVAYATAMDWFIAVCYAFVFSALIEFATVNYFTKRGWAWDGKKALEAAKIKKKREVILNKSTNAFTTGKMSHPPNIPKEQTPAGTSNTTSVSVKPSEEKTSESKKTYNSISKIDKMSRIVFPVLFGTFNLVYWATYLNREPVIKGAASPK
T3 sequence (P28472 26-473 partner): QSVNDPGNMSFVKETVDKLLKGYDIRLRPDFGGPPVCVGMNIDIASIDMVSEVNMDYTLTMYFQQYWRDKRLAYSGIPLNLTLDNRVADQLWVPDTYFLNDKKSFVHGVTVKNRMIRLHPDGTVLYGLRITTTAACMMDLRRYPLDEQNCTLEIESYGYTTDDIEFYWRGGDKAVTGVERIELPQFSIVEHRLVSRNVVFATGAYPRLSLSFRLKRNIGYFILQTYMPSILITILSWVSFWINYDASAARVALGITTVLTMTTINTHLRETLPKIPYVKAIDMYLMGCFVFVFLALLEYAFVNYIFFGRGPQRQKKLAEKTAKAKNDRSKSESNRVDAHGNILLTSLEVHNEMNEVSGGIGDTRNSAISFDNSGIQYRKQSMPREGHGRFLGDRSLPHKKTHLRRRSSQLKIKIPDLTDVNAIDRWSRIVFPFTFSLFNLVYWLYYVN
T3 sequence (P18507 40-475): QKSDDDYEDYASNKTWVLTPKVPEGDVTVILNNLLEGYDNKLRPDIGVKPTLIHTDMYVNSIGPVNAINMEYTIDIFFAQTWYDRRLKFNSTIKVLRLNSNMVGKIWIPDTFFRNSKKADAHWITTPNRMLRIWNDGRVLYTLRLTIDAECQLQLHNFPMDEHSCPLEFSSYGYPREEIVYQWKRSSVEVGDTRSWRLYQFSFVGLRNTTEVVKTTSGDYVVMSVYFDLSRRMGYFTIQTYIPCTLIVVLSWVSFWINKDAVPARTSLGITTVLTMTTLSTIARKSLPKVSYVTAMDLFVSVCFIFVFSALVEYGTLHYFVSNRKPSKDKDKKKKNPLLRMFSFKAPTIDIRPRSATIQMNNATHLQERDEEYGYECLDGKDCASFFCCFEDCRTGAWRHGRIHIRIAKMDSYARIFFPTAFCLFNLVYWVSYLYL
T1 sequence (P31644 32-462): as the sequence (P31644 32-462) above
T1 sequence (P28472 26-473 partner): as the sequence (P28472 26-473 partner) above
T1 sequence (P18507 40-475): as the sequence (P18507 40-475) above
T2 sequence (P31644 32-462): as the sequence (P31644 32-462) above
T2 sequence (P28472 26-473 partner): as the sequence (P28472 26-473 partner) above
T2 sequence (P18507 40-475): as the sequence (P18507 40-475) above

On to `COc1nc(-n2ccnc2)ccc1NC(=O)c1c(-c2ccc(F)cc2)noc1C` [Example 141, 3-(4-Fluorophenyl)-N-(6-imidazol-1-yl-2-methoxy-3-pyridyl)-5-methyl-isoxazole-4-carboxamide], for which the Ki (commonly a dissociation constant, usually derived from enzyme kinetics or from competition with a known ligand) in experiment [1] was 1.9 nM. In experiment [2] (Conc 0.3 μM), the “α5-GABAAR Relative Efficacy (to DMCM), Qpatch” value is −0.93. Moreover, in experiment [3], the “α5-GABAAR Relative Efficacy (to DMCM), SyncroPatch” value is listed as −1.13.
On to `COc1nc(-c2cnc3n2CCN(C(C)=O)C3)ccc1NC(=O)c1c(-c2ccccc2)noc1C` [Example 143, N-(6-(7-Acetyl-5,6,7,8-tetrahydroimidazo[1,2-a]pyrazin-3-yl)-2-methoxypyridin-3-yl)-5-methyl-3-phenylisoxazole-4-carboxamide], for which the Ki in experiment [1] stood at 0.4 nM. The “α5-GABAAR Relative Efficacy (to DMCM), Qpatch” value in experiment [2] (Conc 0.1 μM) is given as −0.80. The “α5-GABAAR Relative Efficacy (to DMCM), SyncroPatch” value in experiment [3] was −0.72.
In the case of `COc1nc(-c2cnc(CN(C)C)nc2)cnc1NC(=O)c1c(-c2ccccc2)noc1C` [Example 144, N-[5-[2-[(Dimethylamino)methyl]pyrimidin-5-yl]-3-methoxy-pyrazin-2-yl]-5-methyl-3-phenyl-isoxazole-4-carboxamide], in experiment [1], the inhibition constant Ki was determined as 1.4 nM. Besides, the “α5-GABAAR Relative Efficacy (to DMCM), Qpatch” value in experiment [2] (Conc 0.3 μM) is recorded as −0.95. Besides, the “α5-GABAAR Relative Efficacy (to DMCM), SyncroPatch” value in experiment [3] is on record as −1.05.
Take `COc1nc(-c2cnc(CN)nc2)cnc1NC(=O)c1c(-c2ccccc2)noc1C.Cl` [Example 156, N-[5-[2-(Aminomethyl)pyrimidin-5-yl]-3-methoxy-pyrazin-2-yl]-5-methyl-3-phenyl-isoxazole-4-carboxamide hydrochloride]: the Ki in experiment [1] turned out to be 2.7 nM. Besides, the “α5-GABAAR Relative Efficacy (to DMCM), Qpatch” value in experiment [2] (Conc 0.3 μM) was −0.91. Further, in experiment [3], the “α5-GABAAR Relative Efficacy (to DMCM), SyncroPatch” value is given as −0.65.
For `COc1nc(-c2ccn3nc(N)nc3c2)ccc1NC(=O)c1c(C)nnn1-c1ccccc1` [Example 159, N-(6-(2-Amino-[1,2,4]triazolo[1,5-a]pyridin-7-yl)-2-methoxypyridin-3-yl)-4-methyl-1-phenyl-1H-1,2,3-triazole-5-carboxamide], the Ki in experiment [1] is 9.2 nM. Further, the “α5-GABAAR Relative Efficacy (to DMCM), Qpatch” value in experiment [2] (Conc 1 μM) is on record as −0.82. Moreover, the “α5-GABAAR Relative Efficacy (to DMCM), SyncroPatch” value in experiment [3] is on record as −0.81.
For the compound `COc1nc(-n2cnc3c2CNCC3)ccc1NC(=O)c1c(-c2ccccc2)noc1C.Cl.Cl` [Example 179, N-[2-Methoxy-6-(4,5,6,7-tetrahydroimidazo[4,5-c]pyridin-3-yl)-3-pyridyl]-5-methyl-3-phenyl-isoxazole-4-carboxamide dihydrochloride], the Ki in experiment [1] amounted to 3 nM. Besides, the “α5-GABAAR Relative Efficacy (to DMCM), Qpatch” value in experiment [2] (Conc 0.3 μM) was −0.65. In addition, in experiment [3], the “α5-GABAAR Relative Efficacy (to DMCM), SyncroPatch” value was −0.38.
As for `COc1nc(-c2cnc(CN)nc2)ccc1NC(=O)c1c(-c2ccccc2)nnn1C.Cl` [Example 180, N-(6-(2-(Aminomethyl)pyrimidin-5-yl)-2-methoxypyridin-3-yl)-1-methyl-4-phenyl-1H-1,2,3-triazole-5-carboxamide hydrochloride], the Ki in experiment [1] was 3.9 nM. The “α5-GABAAR Relative Efficacy (to DMCM), Qpatch” value in experiment [2] (Conc 1 μM) is on record as −0.63. In addition, in experiment [3], the “α5-GABAAR Relative Efficacy (to DMCM), SyncroPatch” value is −0.48.
Regarding `COc1nc(-c2cnc(CN)nc2)ccc1NC(=O)c1c(-c2ccc(F)cc2)noc1C.Cl` [Example 185, N-[6-[2-(Aminomethyl)pyrimidin-5-yl]-2-methoxy-3-pyridyl]-3-(4-fluorophenyl)-5-methyl-isoxazole-4-carboxamide hydrochloride], in experiment [1], the inhibitory constant (Ki) was 0.5 nM. In experiment [2] (Conc 0.1 μM), the “α5-GABAAR Relative Efficacy (to DMCM), Qpatch” value is given as −0.79. Besides, in experiment [3], the “α5-GABAAR Relative Efficacy (to DMCM), SyncroPatch” value is given as −1.23.
With `COc1nc(-c2cnc(OC3CNC3)nc2)ccc1NC(=O)c1c(-c2ccccc2)noc1C` [Example 189, N-[6-[2-(Azetidin-3-yloxy)pyrimidin-5-yl]-2-methoxy-3-pyridyl]-5-methyl-3-phenyl-isoxazole-4-carboxamide], in experiment [1], the inhibitory constant (Ki) amounted to 0.7 nM. In experiment [2] (Conc 0.1 μM), the “α5-GABAAR Relative Efficacy (to DMCM), Qpatch” value is recorded as −0.70. Also, the “α5-GABAAR Relative Efficacy (to DMCM), SyncroPatch” value in experiment [3] was −0.72.
As to `CNCc1ccc(-c2ccc(NC(=O)c3c(-c4ccccc4)noc3C)c(OC)n2)cn1` [Example 190, N-[2-Methoxy-6-[6-(methylaminomethyl)-3-pyridyl]-3-pyridyl]-5-methyl-3-phenyl-isoxazole-4-carboxamide], in experiment [1], the Ki turned out to be 1.1 nM. In addition, in experiment [2] (Conc 0.1 μM), the “α5-GABAAR Relative Efficacy (to DMCM), Qpatch” value is −0.59. For the same compound, the “α5-GABAAR Relative Efficacy (to DMCM), SyncroPatch” value in experiment [3] was −0.72.
On to `COc1nc(-c2nnc3n2CCNC3)ccc1NC(=O)c1c(-c2ccccc2)noc1C` [Example 196, N-(2-Methoxy-6-(5,6,7,8-tetrahydro-[1,2,4]triazolo[4,3-a]pyrazin-3-yl)pyridin-3-yl)-5-methyl-3-phenylisoxazole-4-carboxamide dihydrochloride], for which the inhibitory constant (Ki) in experiment [1] amounted to 23.5 nM. In experiment [2] (Conc 3 μM), the “α5-GABAAR Relative Efficacy (to DMCM), Qpatch” value is recorded as −0.71. Also, in experiment [3], the “α5-GABAAR Relative Efficacy (to DMCM), SyncroPatch” value is −0.68.
For the compound `COc1nc(-c2ccc(CN)nc2)ccc1NC(=O)c1c(-c2ccccc2)noc1C.Cl` [Example 199, N-[6-[6-(Aminomethyl)-3-pyridyl]-2-methoxy-3-pyridyl]-5-methyl-3-phenyl-isoxazole-4-carboxamide hydrochloride], the Ki in experiment [1] is 1.6 nM. The “α5-GABAAR Relative Efficacy (to DMCM), Qpatch” value in experiment [2] (Conc 0.3 μM) is given as −0.82. In addition, the “α5-GABAAR Relative Efficacy (to DMCM), SyncroPatch” value in experiment [3] is recorded as −0.93.
Consider `Cc1onc(-c2ccccc2)c1C(=O)Nc1ccc(-n2ccnc2)nc1OC(C)C` [Example 206, N-(6-(1H-Imidazol-1-yl)-2-isopropoxypyridin-3-yl)-5-methyl-3-phenylisoxazole-4-carboxamide], for which, in experiment [1], the Ki was found to be 1.7 nM. For the same compound, in experiment [2] (Conc 0.3 μM), the “α5-GABAAR Relative Efficacy (to DMCM), Qpatch” value is given as −0.55. Besides, the “α5-GABAAR Relative Efficacy (to DMCM), SyncroPatch” value in experiment [3] is listed as −1.03.
In the case of `Cc1onc(-c2ccccc2)c1C(=O)Nc1ccc(-c2cnc(CN)nc2)nc1OC(C)C` [Example 207, N-(6-(2-(Aminomethyl)pyrimidin-5-yl)-2-isopropoxypyridin-3-yl)-5-methyl-3-phenylisoxazole-4-carboxamide hydrochloride], the Ki in experiment [1] is 0.3 nM. In experiment [2] (Conc 0.1 μM), the “α5-GABAAR Relative Efficacy (to DMCM), Qpatch” value was −0.56. Moreover, the “α5-GABAAR Relative Efficacy (to DMCM), SyncroPatch” value in experiment [3] was −0.83.
Turning to `Cc1onc(-c2ccc(F)cc2)c1C(=O)Nc1ccc(-c2cnc3n2CCNC3)nc1OC(C)C.Cl` [Example 208, 3-(4-Fluorophenyl)-N-(2-isopropoxy-6-(5,6,7,8-tetrahydroimidazo[1,2-a]pyrazin-3-yl)pyridin-3-yl)-5-methylisoxazole-4-carboxamide hydrochloride], the inhibition constant (Ki) in experiment [1] stood at 0.7 nM. The “α5-GABAAR Relative Efficacy (to DMCM), Qpatch” value in experiment [2] (Conc 0.1 μM) was −0.38. Further, the “α5-GABAAR Relative Efficacy (to DMCM), SyncroPatch” value in experiment [3] is −0.70.
